# Source: US6358706B1, “DNA encoding human alpha1G-C T-Type calcium channel” (Ortho-McNeil Pharmaceutical, Inc., priority 1999, dated 2002)
# Where two headings read alike, the source gives them in different places.
# Key:
# [1] = target: T1, human calcium channel alpha1G-c (Homo sapiens, UniProt O43497); assay: two-electrode voltage clamp of Xenopus oocytes expressing human calcium channel alpha1G-c; format: cell-based; conditions: for block of peak human alpha1G-c currents / effect on peak human alpha1G-c currents: 100 μM; for block of peak current: 200 μM, clamped at −100 mV between test pulses
# T1 construct: first reported cloning of a full length DNA molecule encoding the; expressed in transfected cells; host or cells: Xenopus laevis oocytes injected with cRNA transcribed from pGEM HE
# T1 sequence (O43497 1-2273 isoform O43497-6): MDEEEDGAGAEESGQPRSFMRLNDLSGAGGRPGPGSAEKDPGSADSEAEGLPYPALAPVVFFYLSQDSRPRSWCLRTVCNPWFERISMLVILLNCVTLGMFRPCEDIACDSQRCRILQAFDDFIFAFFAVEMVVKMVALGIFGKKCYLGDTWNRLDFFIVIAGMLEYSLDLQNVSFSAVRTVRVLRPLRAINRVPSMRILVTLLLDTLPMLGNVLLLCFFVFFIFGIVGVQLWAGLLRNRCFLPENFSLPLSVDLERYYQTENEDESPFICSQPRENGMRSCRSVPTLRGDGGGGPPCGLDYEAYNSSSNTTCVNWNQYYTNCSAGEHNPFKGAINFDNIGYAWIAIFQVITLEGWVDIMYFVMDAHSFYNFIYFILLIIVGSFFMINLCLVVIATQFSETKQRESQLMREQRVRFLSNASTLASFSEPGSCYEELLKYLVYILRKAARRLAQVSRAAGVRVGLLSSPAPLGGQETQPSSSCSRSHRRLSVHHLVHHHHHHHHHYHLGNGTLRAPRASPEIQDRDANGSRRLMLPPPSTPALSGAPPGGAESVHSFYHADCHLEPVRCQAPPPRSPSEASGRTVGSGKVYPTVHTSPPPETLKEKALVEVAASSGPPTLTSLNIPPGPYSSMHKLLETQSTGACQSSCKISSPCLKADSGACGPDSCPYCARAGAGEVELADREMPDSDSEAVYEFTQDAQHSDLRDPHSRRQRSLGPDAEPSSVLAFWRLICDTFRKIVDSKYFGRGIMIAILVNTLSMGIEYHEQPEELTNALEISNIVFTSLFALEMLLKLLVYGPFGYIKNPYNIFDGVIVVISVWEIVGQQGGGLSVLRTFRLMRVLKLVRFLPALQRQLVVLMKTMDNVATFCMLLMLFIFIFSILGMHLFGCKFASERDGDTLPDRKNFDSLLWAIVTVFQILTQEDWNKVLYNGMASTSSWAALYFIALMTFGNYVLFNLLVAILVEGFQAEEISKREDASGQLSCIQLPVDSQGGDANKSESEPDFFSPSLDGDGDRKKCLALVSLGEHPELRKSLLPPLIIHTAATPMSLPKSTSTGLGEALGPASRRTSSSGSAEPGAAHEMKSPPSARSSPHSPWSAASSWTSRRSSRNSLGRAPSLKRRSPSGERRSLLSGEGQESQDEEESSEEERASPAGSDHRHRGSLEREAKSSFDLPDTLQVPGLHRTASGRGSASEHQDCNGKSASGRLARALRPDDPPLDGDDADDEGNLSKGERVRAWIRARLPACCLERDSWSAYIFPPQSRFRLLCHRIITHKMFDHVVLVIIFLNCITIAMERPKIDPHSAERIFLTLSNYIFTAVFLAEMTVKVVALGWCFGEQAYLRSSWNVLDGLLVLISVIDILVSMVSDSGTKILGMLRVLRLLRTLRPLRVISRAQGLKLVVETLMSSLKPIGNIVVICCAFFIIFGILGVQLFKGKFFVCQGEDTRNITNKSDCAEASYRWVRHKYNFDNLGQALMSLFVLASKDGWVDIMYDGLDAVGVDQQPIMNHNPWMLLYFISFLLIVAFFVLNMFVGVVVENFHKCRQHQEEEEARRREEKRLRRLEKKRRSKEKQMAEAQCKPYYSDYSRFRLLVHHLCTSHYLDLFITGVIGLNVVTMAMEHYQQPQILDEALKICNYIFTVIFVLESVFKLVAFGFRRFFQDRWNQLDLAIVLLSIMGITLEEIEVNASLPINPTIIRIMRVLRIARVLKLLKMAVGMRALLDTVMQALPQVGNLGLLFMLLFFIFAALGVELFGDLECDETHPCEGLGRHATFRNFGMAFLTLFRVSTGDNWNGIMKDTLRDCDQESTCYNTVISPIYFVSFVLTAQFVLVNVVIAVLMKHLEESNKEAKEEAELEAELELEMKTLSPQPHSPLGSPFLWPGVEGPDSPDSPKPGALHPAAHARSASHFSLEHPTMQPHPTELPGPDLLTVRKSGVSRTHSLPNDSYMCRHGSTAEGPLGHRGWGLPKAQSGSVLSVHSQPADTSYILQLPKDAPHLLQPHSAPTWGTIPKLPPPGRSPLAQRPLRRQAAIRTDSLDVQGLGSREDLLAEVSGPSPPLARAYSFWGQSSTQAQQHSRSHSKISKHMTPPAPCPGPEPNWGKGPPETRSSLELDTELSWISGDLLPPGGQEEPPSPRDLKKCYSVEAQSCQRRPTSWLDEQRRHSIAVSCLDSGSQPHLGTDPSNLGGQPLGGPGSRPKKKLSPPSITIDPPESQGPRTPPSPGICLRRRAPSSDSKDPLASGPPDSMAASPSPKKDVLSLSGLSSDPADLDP
# Experimental: Xenopus laevis oocytes were prepared and injected using standard methods previously described and known in the art (Fraser, S. P. et al. (1993)). Ovarian lobes from adult female Xenopus laevis (Nasco, Fort Atkinson, Wis.) were teased apart, rinsed several times in nominally Ca-free saline containing: 82.5 mM NaCl, 2.5 mM KCl, 1 mM MgCl2, 5 mM HEPES, adjusted to pH 7.0 with NaOH (OR-2), and gently shaken in OR-2 containing 0.2% collagenase Type 1 (ICN Biomedicals, Aurora, Ohio) for 2-5 hours. When approximately 50% of the follicular layers were removed, Stage V and VI oocytes were selected and rinsed in media consisting of 75% OR-2 and 25% ND-96. The ND-96 contained: 100 mM NaCl, 2 mM KCl, 1 mM MgCl2, 1.8 mM CaCl2, 5 mM HEPES, 2.5 mM Na pyruvate, gentamicin (50 ug/ml), adjusted to pH 7.0 with NaOH. […] The synthesized cRNA was precipitated with ammonium acetate and isopropanol, and resuspended in 50 μl nuclease-free water. cRNA was quantified using formaldehyde gels (1% agarose, 1×MOPS , 3% formaldehyde) against RNA markers (Gibco BRL, 0.24-9.5 Kb).
# Oocytes were injected with 50 nl of the human calcium channel alpha1G-c cRNA (about 600 ng). Control oocytes were injected with 50 nl of water. Oocytes were incubated in ND-96 before analysis for expression of the human calcium channel alpha1G-c. Incubations and collagenase digestion were carried out at room temperature. Injected oocytes were maintained in 48 well cell culture clusters (Costar; Cambridge, Mass.) at 18° C. Whole cell agonist-induced currents were measured 3-6 days after injection with a conventional two-electrode voltage clamp (GeneClamp500, Axon Instruments, Foster City, Calif.) using standard methods previously described and known in the art (Dascal, N. (1987)). The microelectrodes were filled with 3 M KCl, which had resistances of 1 and 2 MΩ. Cells were continuously perfused with ND96 at 2-5 mi/min at room temperature unless indicated. In some experiments, cells were bathed in a 40 mM Ba saline containing (in mM): 40 BaCl2, 2 KCl, 36 TEA-Cl, 5 4-AP and 5 HEPES, pH 7.6. Membrane voltage was clamped at −100 mV unless indicated.
# Oocytes were bathed in ND96,
# [2] = tested on: mouse alpha1G; conditions: cited from earlier work
# [3] = target: T2, human alpha1H (Homo sapiens, UniProt O95180); conditions: cited from earlier work; for IC50: expressed in oocytes
# T2 construct: host or cells: oocytes
# T2 sequence (O95180 whole entry): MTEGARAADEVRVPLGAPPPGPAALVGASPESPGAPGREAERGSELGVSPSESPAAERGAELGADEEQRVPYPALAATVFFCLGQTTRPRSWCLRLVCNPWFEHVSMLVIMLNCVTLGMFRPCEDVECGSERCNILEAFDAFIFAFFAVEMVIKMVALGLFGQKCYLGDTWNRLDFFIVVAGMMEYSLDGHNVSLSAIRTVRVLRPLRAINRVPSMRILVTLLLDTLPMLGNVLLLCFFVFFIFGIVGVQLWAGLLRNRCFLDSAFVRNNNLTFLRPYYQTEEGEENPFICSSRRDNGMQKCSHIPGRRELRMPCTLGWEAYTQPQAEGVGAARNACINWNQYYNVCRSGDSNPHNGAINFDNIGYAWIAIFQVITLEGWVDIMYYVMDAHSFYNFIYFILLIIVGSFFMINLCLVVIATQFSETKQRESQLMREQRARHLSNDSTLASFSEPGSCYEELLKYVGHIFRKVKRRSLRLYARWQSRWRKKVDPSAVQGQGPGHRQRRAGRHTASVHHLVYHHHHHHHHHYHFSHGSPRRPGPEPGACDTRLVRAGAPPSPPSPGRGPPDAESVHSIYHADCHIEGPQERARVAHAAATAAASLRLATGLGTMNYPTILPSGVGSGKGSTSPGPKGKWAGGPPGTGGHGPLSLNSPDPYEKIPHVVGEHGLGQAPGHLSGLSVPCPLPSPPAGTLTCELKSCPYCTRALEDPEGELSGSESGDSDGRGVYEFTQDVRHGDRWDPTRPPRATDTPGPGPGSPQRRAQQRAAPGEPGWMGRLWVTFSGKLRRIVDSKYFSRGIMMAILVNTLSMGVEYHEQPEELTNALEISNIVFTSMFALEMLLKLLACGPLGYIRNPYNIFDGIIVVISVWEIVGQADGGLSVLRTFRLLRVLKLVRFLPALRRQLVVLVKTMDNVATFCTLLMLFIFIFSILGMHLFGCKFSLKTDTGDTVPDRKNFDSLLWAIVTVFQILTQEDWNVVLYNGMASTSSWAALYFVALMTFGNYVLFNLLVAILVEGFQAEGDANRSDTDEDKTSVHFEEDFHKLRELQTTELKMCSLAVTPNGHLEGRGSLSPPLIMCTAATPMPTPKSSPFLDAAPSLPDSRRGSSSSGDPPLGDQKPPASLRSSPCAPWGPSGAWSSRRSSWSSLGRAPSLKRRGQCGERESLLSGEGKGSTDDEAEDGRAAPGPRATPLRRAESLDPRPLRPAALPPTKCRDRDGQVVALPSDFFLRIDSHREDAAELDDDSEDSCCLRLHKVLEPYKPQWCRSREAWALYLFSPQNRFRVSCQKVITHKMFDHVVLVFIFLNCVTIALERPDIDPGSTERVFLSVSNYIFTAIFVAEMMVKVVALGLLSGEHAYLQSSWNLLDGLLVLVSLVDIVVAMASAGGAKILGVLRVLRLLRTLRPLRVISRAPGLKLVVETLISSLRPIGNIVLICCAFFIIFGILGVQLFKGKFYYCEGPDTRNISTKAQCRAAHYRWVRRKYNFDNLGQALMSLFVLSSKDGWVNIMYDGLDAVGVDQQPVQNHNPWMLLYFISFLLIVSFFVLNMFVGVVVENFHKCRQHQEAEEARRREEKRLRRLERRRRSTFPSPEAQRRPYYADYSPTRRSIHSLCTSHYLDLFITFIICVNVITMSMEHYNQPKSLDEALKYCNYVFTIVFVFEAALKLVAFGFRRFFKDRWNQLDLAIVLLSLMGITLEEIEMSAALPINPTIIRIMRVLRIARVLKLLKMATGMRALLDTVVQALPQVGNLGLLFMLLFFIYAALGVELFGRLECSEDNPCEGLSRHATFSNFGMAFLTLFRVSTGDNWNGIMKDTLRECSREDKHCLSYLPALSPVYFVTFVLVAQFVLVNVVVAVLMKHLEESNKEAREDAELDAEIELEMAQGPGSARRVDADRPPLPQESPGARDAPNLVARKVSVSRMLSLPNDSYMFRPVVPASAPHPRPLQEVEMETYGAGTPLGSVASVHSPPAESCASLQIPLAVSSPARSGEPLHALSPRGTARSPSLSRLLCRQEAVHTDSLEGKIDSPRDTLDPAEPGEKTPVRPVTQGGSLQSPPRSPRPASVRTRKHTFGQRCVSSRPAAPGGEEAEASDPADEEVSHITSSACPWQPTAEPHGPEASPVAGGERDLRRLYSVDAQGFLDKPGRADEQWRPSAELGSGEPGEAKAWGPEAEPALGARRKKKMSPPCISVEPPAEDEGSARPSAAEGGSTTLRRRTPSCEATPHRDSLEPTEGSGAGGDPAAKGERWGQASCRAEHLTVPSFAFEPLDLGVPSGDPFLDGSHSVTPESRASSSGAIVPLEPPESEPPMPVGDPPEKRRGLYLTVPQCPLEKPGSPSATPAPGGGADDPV
# [4] = tested on: T-type calcium channels; conditions: range over cell types; read-out: EC50's depending on the cell type; cited from earlier work
# [5] = tested on: T-type calcium channels from dorsal root ganglion neurons; conditions: neurons from one-day-old rats, cited from earlier work
# [6] = tested on: LVCC in hippocampal CA3 neurons; conditions: 250 μM or 1 mM; cited from earlier work
# [7] = target: L-type current; conditions: neurons from one-day-old rats; cited from earlier work
# [8] = tested on: T type currents from guinea pig or rat ventrobasal thalamic neurons; set-up: maximal block: dose or concentration left out as unconfirmed; conditions: cited from earlier work
smiles,measurement,setting,value
"O=C(O)c1c2ccccc2cc2ccccc12 [9-AC, anthracene-9-carboxylic acid]",block of peak human alpha1G-c currents,[1],30+/−3%
[Cd+2] [Cd^2+],block of peak human alpha1G-c currents,[1],44+/−9%
"O=S(=O)(O)c1cc(N=C=S)ccc1C=Cc1ccc(N=C=S)cc1S(=O)(=O)O [DIDS, 4,4′-diisothiocyanatostilbene-2.2′-disulfonic acid]",block of peak human alpha1G-c currents,[1],16+/−13%
same,effect on peak human alpha1G-c currents,[1],no effect
"O=C(O)c1cc([N+](=O)[O-])ccc1NCCCc1ccccc1 [NPPB, 5-Nitro-2-(3-phenylpropylamino)benzoic acid]",block of human alpha1G-c currents,[1]; 20 μM,22+/−6%
same,block of peak human alpha1G-c currents,[1],55+/−7%
same,block of peak current,[1],89+/−7%
same,sensitivity of human alpha1G-c to block,[1]; expressed in oocytes,blocked halpha1G-c currents
[Cl][Ni][Cl] [NiCl2],sensitivity,[2]; as opposed to other T-type channels,very low sensitivity
same,IC50,[3],~6 µM
same,block of peak current,[1],25+/−6%
same,current blocked relative to 200 μM,"[1]; 1 mM, same cell",about twice the current blocked by 200 μM Ni^2+
same,sensitivity of human alpha1G-c to block,[1]; expressed in oocytes,relatively insensitive
N=C(N)NC(=O)c1nc(Cl)c(N)nc1N [amiloride],EC50,[4],≥ 50 µM
same,IC50,[3],~20 µM
same,block of peak currents,[1],23+/−4%
same,sensitivity of human alpha1G-c to block,[1],sensitive
CCC1(C)CC(=O)NC1=O (stereo not shown) [ethosuximide],maximal block,[5],100%
same,Kd,[5]; read-out: Kd for T-current,7 µM
same,block of human alpha1H currents,[3]; 300 μM,~7%
same,sensitivity,[3],insensitive
same,sensitivity of all components of the LVCC,[6],insensitive
same,reversible block of peak currents,"[1]; 600 μM, −100 mV between voltage pulses, ND96 and Ba2+ salines similar",26+/−−3%
same,sensitivity of human alpha1G-c to block,[1]; expressed in oocytes,sensitive
same,Kd,[7],15 µM
same,effect on T-currents,[8]; in 25% of the TCs tested,no effect
"COCC(=O)O[C@]1(CCN(C)CCCc2nc3ccccc3[nH]2)CCc2cc(F)ccc2[C@@H]1C(C)C [mibefradil, (1S,2S)-2-[2-[[3-(1H-benzimidazol-2-yl)propyl]methyl-amino]ethyl]-6-fluoro-1-isopropyl-1,2,3,4-tetrahydronaphthalen-2-yl methoxyacetate]",IC50,[2]; most prominent (low affinity) site,~0.4 µM
same,maximal block,[8],~40%
same,IC50,[8]; majority of T type currents,~500 µM
O=C(O)c1cccnc1Nc1cccc(C(F)(F)F)c1 [niflumic acid],block of peak human alpha1G-c currents,[1],0+/−2%
same,effect on peak human alpha1G-c currents,[1],no effect
